Measurements: article PMC11744766, “Dual Inhibitors of SARS-CoV-2 3CL Protease and Human Cathepsin L Containing Glutamine Isosteres Are Anti-CoV-2 Agents” (Journal of the American Chemical Society, 2025)
Values joined by “and” are separate entries in the source; they are usually repeats but may differ in a detail not shown here. Identical values can stand only once. Like-named read-outs stand apart in the source and are kept apart here.

Experiments:
human cathepsin L [1] = target: T1, human cathepsin L (Homo sapiens, UniProt P07711); settings: read-out: Ki (hCatL), cited from earlier work
T1 construct: His-tag (only implied by the Ni-NTA capture and the pET-28a(+) vector); host or cells: E. coli C43(DE3)
T1 sequence (P07711 114-333): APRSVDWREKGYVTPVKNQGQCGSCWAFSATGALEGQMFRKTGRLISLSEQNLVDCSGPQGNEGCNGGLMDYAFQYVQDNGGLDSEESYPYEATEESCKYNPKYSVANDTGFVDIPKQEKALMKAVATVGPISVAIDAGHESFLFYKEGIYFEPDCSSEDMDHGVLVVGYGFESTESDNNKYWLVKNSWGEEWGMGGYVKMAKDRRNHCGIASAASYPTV

[2] = target: T2, SARS-CoV-2 3CL protease (3CL-PR) (Severe acute respiratory syndrome coronavirus 2, UniProt P0DTC1); settings: cited from earlier work; for Ki: read-out: Ki (3CL-PR)
human cathepsin L [3] = target: T1, human cathepsin L; assay: Kinetic assay of human cathepsin L inhibition (Z-LR-AMC / Z-FR-AMC fluorescence); assay type: biochemical; settings: for mode of inhibition of hCatL: inhibitor vs variable substrate
[4] = target: T2, SARS-CoV-2 3CL protease (3CL-PR); assay: biochemical; assay type: biochemical
human cathepsin B = target: T3, human cathepsin B (Homo sapiens, UniProt P07858); assay: Kinetic assay of human cathepsin B inhibition (Z-LR-AMC fluorescence); assay type: biochemical
T3 construct: purchased Millipore Sigma or R&D Systems

[5] = system: SARS-CoV-2 (USA_WA1/2020 isolate); assay: Vero E6-based microneutralization assay of SARS-CoV-2 infection (CPE); assay type: cell-based; settings: for fold less potent in inhibiting SARS-CoV-2 infection than Nirmatrelvir and PF-835231: ratio of EC50
[6] = 25 °C, pH 5.5, time-dependent inhibitors at t ∼ 30 min (steady-state), read-out: Ki * (nM) hCat L
[7] = 25 °C, pH 7.5, time-dependent inhibitors at t ∼ 30 min (steady-state), read-out: Ki * (nM) 3CL-PR
[8] = 25 °C, pH 5.5, time-dependent inhibitors at t ∼ 30 min (steady-state), read-out: Ki * (nM) hCat B
[9] = initial rates, t = 0–3 min, read-out: Ki (hCatB) from initial rates vi/v0
[10] = Severe acute respiratory syndrome coronavirus 2, Vero C1008, 72 h, Vero E6 cells, 2 μM CP-100356, CPE after 3 days, read-out: Anti-SARS-CoV-2 Activity EC50

CC(C)C[C@H](NC(=O)c1cc2ccccc2[nH]1)C(=O)N[C@H](C=O)C[C@@H]1CCNC1=O [AC1115, reference compound]
Ki (human cathepsin L [1]; AC1115): ~0.06 nM
Ki ([2]; AC1115): 2.4 nM

CN1CCN(C(=O)NC(Cc2ccccc2)C(=O)NC2Cc3ccccc3OC2O)CC1 (centres unmarked) [Compound 1]
inhibition of 3CL-PR ([2]; compound 1): did not inhibit
Ki ([2]; compound 1): > 10000 nM

CN1CCN(C(=O)NC(Cc2ccccc2)C(=O)NC2Cc3cccnc3OC2O)CC1 (centres unmarked) [Compound 2]
Ki (human cathepsin L [1]; compounds 1 and 2): 1.03 nM and 1 nM
Ki ([2]; compound 2): 250 nM

CC(C)C[C@H](NC(=O)OCc1ccccc1)C(=O)N[C@@H](CC1CCCCC1)C(=O)N[C@H](C=O)Cc1ccc[nH]c1=O [Compound 3]
Ki (human cathepsin L [3]; [6]): 8 ± 1 nM
mode of inhibition of hCatL (human cathepsin L [3]): competitive inhibitor
Ki [4, 7]: 9 ± 2 nM
Ki ([4]; competitive pattern at < 10 min incubation (Figure S1B), read-out: Ki (3CL-PR) before longer incubation): 16 nM
mode of inhibition of 3CL-PR ([4]; inhibitor vs variable substrate): competitive inhibitor
fold less potent vs 3CL-PR than Nirmatrelvir ([4]; ratio of Ki): 3 fold
Ki (human cathepsin B; [8]): 280 ± 5 nM
Ki (human cathepsin B; [9]): 290 nM
EC50 [5, 10]: 0.47 µM
fold less potent in inhibiting SARS-CoV-2 infection than Nirmatrelvir and PF-835231 ([5]; Vero E6 cells): 2 fold

CC(C)CC(NC(=O)c1cc2ccccc2[nH]1)C(=O)NC(C=O)Cc1ccc[nH]c1=O (centres unmarked) [Compound 4]
Ki (human cathepsin L [3]; [6]): 17 ± 1 nM
Ki [4, 7]: 38 ± 4 nM
Ki (human cathepsin B; [8]): 210 ± 20 nM
EC50 [5, 10]: 15 µM

O=CC(Cc1ccc[nH]c1=O)NC(=O)C(CC1CCCCC1)NC(=O)c1cc2ccccc2[nH]1 (centres unmarked) [Compound 5]
Ki (human cathepsin L [3]; [6]): 9 ± 2 nM
fold improvement in inhibition of hCatL, 5 over 4 (human cathepsin L [3]; CHA for Leu at P2): 2 fold
mode of inhibition of hCatL (human cathepsin L [3]): competitive inhibitor
Ki [4, 7]: 27 ± 5 nM
fold improvement in inhibition of 3CL-PR, 5 over 4 ([4]; CHA for Leu at P2): 1.5 fold
Ki (human cathepsin B; [8]): 101 ± 3 nM
EC50 [5, 10]: 1.9 µM
fold less potent in inhibiting SARS-CoV-2 infection than Nirmatrelvir and PF-835231 ([5]; Vero E6 cells): eight-fold less active

COc1cccc2[nH]c(C(=O)NC(CC(C)C)C(=O)NC(C=O)Cc3ccc[nH]c3=O)cc12 (centres unmarked) [Compound 6]
fold improvement in inhibition of hCatL, 6 over 4 (human cathepsin L [3]; 4-methoxy group on indole): 30 fold
Ki (human cathepsin L [3]; [6]): 0.6 nM and 0.55 nM
Ki (human cathepsin L [3]; initial rates, t = 0–180 s, read-out: Ki (hCatL) from initial rates vi/v0): 2.3 ± 0.4 nM
fold more potent vs 3CL-PR, 6 compared to 8 [4]: 50 fold
fold improvement in inhibition of 3CL-PR, 6 over 4 ([4]; 4-methoxy group on indole): 15 fold
Ki [4, 7]: 2.6 ± 0.4 nM
Ki ([4]; initial rates, t = 0–180 s, read-out: Ki (3CL-Pro) from initial rates vi/v0): 20 ± 2 nM
Ki (human cathepsin B; [8]): 100 ± 2 nM
Ki (human cathepsin B; [9]): 65 ± 3 nM
EC50 [5, 10]: 1.25 µM
fold less potent in inhibiting SARS-CoV-2 infection than Nirmatrelvir and PF-835231 ([5]; Vero E6 cells): five-fold less potent
fold less anti-CoV-2 activity in comparison to AC1115 ([5]; not evaluated under the same conditions): 4 fold

COc1cccc2[nH]c(C(=O)N[C@@H](CC(C)C)C(=O)N[C@H](C=O)Cc3cocn3)cc12 [Compound 8]
Ki (human cathepsin L [3]; [6]): 1.1 ± 0.1 nM
Ki [4, 7]: 124 ± 5 nM
Ki (human cathepsin B; [8]): 189 ± 9 nM
EC50 ([5]; Severe acute respiratory syndrome coronavirus 2, Vero C1008, 72 h, read-out: Anti-SARS-CoV-2 Activity EC50 (μM), Vero E6 cells, 2 μM CP-100356, CPE after 3 days): 0.62 µM
EC50 ([5]; Vero E6 cells, 2 μM CP-100356, CPE after 3 days, read-out: Anti-SARS-CoV-2 Activity EC50): 0.625 µM

CN1CCN(C(=O)N[C@@H](Cc2ccccc2)C(=O)N[C@H](/C=C/S(=O)(=O)c2ccccc2)CCc2ccccc2)CC1 [Compound K11777, reference compound]
Ki ([2]; K11777): > 10000 nM

CC(C)(C)[C@H](NC(=O)C(F)(F)F)C(=O)N1C[C@H]2[C@@H]([C@H]1C(=O)N[C@H](C#N)C[C@@H]1CCNC1=O)C2(C)C [Nirmatrelvir, reference compound]
EC50 [5, 10]: 0.23 µM

COc1cccc2[nH]c(C(=O)N[C@@H](CC(C)C)C(=O)N[C@@H](C[C@@H]3CCNC3=O)C(=O)CO)cc12 [PF-835231, reference compound]
Ki [4, 7]: 0.23 ± 0.09 nM
fold more potent than Nirmatrelvir vs 3CL-PR ([4]; ratio of Ki): more than 10 fold
EC50 [5, 10]: 0.23 µM
